# Structures can show the parent of a compound that is named as a salt.
# System: 22RV1 cells
# Assay: Experiment 2 on inhibiting 22RV1 cell proliferation (7 days, CellTiter-Glo)
# Assay type: cell-based
# Conditions: Homo sapiens, 22Rv1, 168 h, 1% css-FBS phenol red-free medium, incubated with compound 7 days, read-out: IC50 values on proliferation inhibition of 22RV1 cells
# Summary of the method: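 Survival measured by CellTiter-Glo after 7 days of compound exposure, normalised to DMSO controls, with IC50 fitted by dose-response. Cells (22RV1, 2000/well) were seeded overnight in 1% css-FBS phenol red-free medium before dosing.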
row,SMILES,IC50 [nM]
1,"Cn1c(=O)n(C2CCC(=O)NC2=O)c2cccc(CN3CCC(CN4CCC(C5CCN(c6nccc(COc7ccc(C(C)(C)c8cc(Cl)cc(C#N)c8)cc7)n6)CC5)CC4)CC3)c21 (stereo not shown) [Compound 74 trifluoroacetate, 3-chloro-5-(2-(4-((2-(1′-((1-((1-(2,6-dioxopiperidin-3-yl)-3-methyl-2-oxo-2,3-dihydro-1H-benzo[d]imidazol-4-yl)methyl)piperidin-4-yl)methyl)-[4,4′-bipiperidin]-1-yl)pyrimidin-4-yl)methoxy)phenyl)propan-2-yl)benzonitrile]",474
2,"CC(C)(c1ccc(OCc2ccnc(N3CCC4(CC3)CN(C3CCN(C5CN(c6ccc7c(c6)C(=O)N(C6CCC(=O)NC6=O)C7=O)C5)CC3)C4)n2)cc1)c1cc(Cl)cc(C#N)c1 (stereo not shown) [Compound 75 trifluoroacetate, 3-chloro-5-(2-(4-((2-(2-(1-(1-(2-(2,6-dioxopiperidin-3-yl)-1,3-dioxoisoindolin-5-yl)azetidin-3-yl)piperidin-4-yl)-2,7-diazaspiro[3.5]nonan-7-yl)pyrimidin-4-yl)methoxy)phenyl)propan-2-yl)benzonitrile]",275
3,"CC(C)(c1ccc(OCc2ccnc(N3CCC4(CC3)CN(C3CN(C5CN(c6ccc7c(c6)C(=O)N(C6CCC(=O)NC6=O)C7=O)C5)C3)C4)n2)cc1)c1cc(Cl)cc(C#N)c1 (stereo not shown) [Compound 76 trifluoroacetate, 3-chloro-5-(2-(4-((2-(2-(1′-(2-(2,6-dioxopiperidin-3-yl)-1,3-dioxoisoindolin-5-yl)-[1,3′-biazetidin]-3-yl)-2,7-diazaspiro[3.5]nonan-7-yl)pyrimidin-4-yl)methoxy)phenyl)propan-2-yl)benzonitrile]",475
4,"CC(C)(c1ccc(OCc2ccnc(N3CCC(CN4CCC5(CC4)CCN(c4ccc6c(c4)C(=O)N(C4CCC(=O)NC4=O)C6=O)CC5)CC3)n2)cc1)c1cc(Cl)cc(C#N)c1 (stereo not shown) [Compound 77 trifluoroacetate, 3-chloro-5-(2-(4-((2-(4-((9-(2-(2,6-dioxopiperidin-3-yl)-1,3-dioxoisoindolin-5-yl)-3,9-diazaspiro[5.5]undecan-3-yl)methyl)piperidin-1-yl)pyrimidin-4-yl)methoxy)phenyl)propan-2-yl)benzonitrile]",192
5,"CC(C)(c1ccc(OCc2ccnc(N3CC4CN(C5CCN(C6CN(c7ccc8c(c7)C(=O)N(C7CCC(=O)NC7=O)C8=O)C6)CC5)CC4C3)n2)cc1)c1cc(Cl)cc(C#N)c1 (stereo not shown) [Compound 81 trifluoroacetate, 3-chloro-5-(2-(4-((2-(5-(1-(1-(2-(2,6-dioxopiperidin-3-yl)-1,3-dioxoisoindolin-5-yl)azetidin-3-yl)piperidin-4-yl)hexahydropyrrolo[3,4-c]pyrrol-2(1H)-yl)pyrimidin-4-yl)methoxy)phenyl)propan-2-yl)benzonitrile]",484
6,"CC(C)(c1ccc(OCc2ccnc(N3CC4CN(C5CCN(CC6CCN(c7ccc8c(c7)C(=O)N(C7CCC(=O)NC7=O)C8=O)CC6)CC5)CC4C3)n2)cc1)c1cc(Cl)cc(C#N)c1 (stereo not shown) [Compound 82 trifluoroacetate, 3-chloro-5-(2-(4-((2-(5-(1-((1-(2-(2,6-dioxopiperidin-3-yl)-1,3-dioxoisoindolin-5-yl)piperidin-4-yl)methyl)piperidin-4-yl)hexahydropyrrolo[3,4-c]pyrrol-2(1H)-yl)pyrimidin-4-yl)methoxy)phenyl)propan-2-yl)benzonitrile]",413
7,"Cn1c(=O)n(C2CCC(=O)NC2=O)c2cccc(N3CCC(C4CCN(CC5CCN(c6nccc(COc7ccc(C(C)(C)c8cc(Cl)cc(C#N)c8)cc7)n6)CC5)CC4)CC3)c21 (stereo not shown) [Compound 85 trifluoroacetate, 3-chloro-5-(2-(4-((2-(4-((1′-(1-(2,6-dioxopiperidin-3-yl)-3-methyl-2-oxo-2,3-dihydro-1H-benzo[d]imidazol-4-yl)-[4,4′-bipiperidin]-1-yl)methyl)piperidin-1-yl)pyrimidin-4-yl)methoxy)phenyl)propan-2-yl)benzonitrile]",316
8,"CC(C)(c1ccc(OCc2ccnc(N3CCC(CN4CCC5(CC4)CCN(c4ccc6c(c4)C(=O)N(C4CCC(=O)NC4=O)C6=O)CC5)C3)n2)cc1)c1cc(Cl)cc(C#N)c1 (stereo not shown) [Compound 86 trifluoroacetate, 3-chloro-5-(2-(4-((2-(3-((9-(2-(2,6-dioxopiperidin-3-yl)-1,3-dioxoisoindolin-5-yl)-3,9-diazaspiro[5.5]undecan-3-yl)methyl)pyrrolidin-1-yl)pyrimidin-4-yl)methoxy)phenyl)propan-2-yl)benzonitrile]",278
9,"CC(C)(c1ccc(OCc2ccnc(N3CC(CN4CCC5(CC4)CCN(c4ccc6c(c4)C(=O)N(C4CCC(=O)NC4=O)C6=O)CC5)C3)n2)cc1)c1cc(Cl)cc(C#N)c1 (stereo not shown) [Compound 87 trifluoroacetate, 3-chloro-5-(2-(4-((2-(3-((9-(2-(2,6-dioxopiperidin-3-yl)-1,3-dioxoisoindolin-5-yl)-3,9-diazaspiro[5.5]undecan-3-yl)methyl)azetidin-1-yl)pyrimidin-4-yl)methoxy)phenyl)propan-2-yl)benzonitrile]",303
10,"Cn1c(=O)n(C2CCC(=O)NC2=O)c2ccc(C3CCN(C4CCN(CC5(F)CCN(c6nccc(COc7ccc(C(C)(C)c8cc(Cl)cc(C#N)c8)cc7)n6)CC5)CC4)CC3)cc21 (stereo not shown) [Compound 90 trifluoroacetate, 3-chloro-5-(2-(4-((2-(4-((4-(1-(2,6-dioxopiperidin-3-yl)-3-methyl-2-oxo-2,3-dihydro-1H-benzo[d]imidazol-5-yl)-[1,4′-bipiperidin]-1′-yl)methyl)-4-fluoropiperidin-1-yl)pyrimidin-4-yl)methoxy)phenyl)propan-2-yl)benzonitrile]",627
11,"Cn1c(=O)n(C2CCC(=O)NC2=O)c2ccc(C3CCN(CC4CCN(C5CCN(c6nccc(COc7ccc(C(C)(C)c8cc(Cl)cc(C#N)c8)cc7)n6)CC5)CC4)CC3)cc21 (stereo not shown) [Compound 91 trifluoroacetate, 3-chloro-5-(2-(4-((2-(4-((4-(1-(2,6-dioxopiperidin-3-yl)-3-methyl-2-oxo-2,3-dihydro-1H-benzo[d]imidazol-5-yl)piperidin-1-yl)methyl)-[1,4′-bipiperidin]-1′-yl)pyrimidin-4-yl)methoxy)phenyl)propan-2-yl)benzonitrile]",427
12,"COc1c(Cl)cc(C(C)(C)c2ccc(OCc3ccnc(N4CCC(CN5CCC(c6ccc7c(c6)n(C)c(=O)n7C6CCC(=O)NC6=O)CC5)CC4)n3)cc2)cc1C#N (stereo not shown) [Compound 92 trifluoroacetate, 3-chloro-5-(2-(4-((2-(4-((4-(1-(2,6-dioxopiperidin-3-yl)-3-methyl-2-oxo-2,3-dihydro-1H-benzo[d]imidazol-5-yl)piperidin-1-yl)methyl)piperidin-1-yl)pyrimidin-4-yl)methoxy)phenyl)propan-2-yl)-2-methoxybenzonitrile]",900
13,"COc1c(Cl)cc(C(C)(C)c2ccc(OCc3ccnc(N4CCC5(CCC(CN6CCC(c7ccc8c(c7)n(C)c(=O)n8C7CCC(=O)NC7=O)CC6)CC5)CC4)n3)cc2)cc1C#N (stereo not shown) [Compound 93 trifluoroacetate, 3-chloro-5-(2-(4-((2-(9-((4-(1-(2,6-dioxopiperidin-3-yl)-3-methyl-2-oxo-2,3-dihydro-1H-benzo[d]imidazol-5-yl)piperidin-1-yl)methyl)-3-azaspiro[5.5]undecan-3-yl)pyrimidin-4-yl)methoxy)phenyl)propan-2-yl)-2-methoxybenzonitrile]",554
